Reference: patent publication US20120258944A1, “ANTIOXIDANTS FOR USE IN THERAPY” (priority 2009, published 2012)

Tests used:
[1] = system: human Neutrophils and human PBMCs; assay: Intracellular ROS, luminol luminescence with SOD and catalase, PMA or fMLF stimulated cells; type: cell-based; conditions: PMA or fMLF 30 ng/ml; compounds 120, 60, 30 microM; FIG. 5-8
Procedure: Validation was performed by stimulating cells with PMA and fMLF. When treated with the antioxidants, altered level of ROS production from the cells was measured using luminometry. Both intracellular and extracellular effect on ROS on the cells was analyzed using isoluminol (extracellular) and luminol (intracellular when co-administered with SOD and catalase) (Dahlgren et al. “Respiratory burst in human neutrophils”, Journal of Immunological Methods 232 1999; 3-14).
The luminol reagent buffer is made of HBSS buffer (with Ca^2+), luminol and SOD/Catalase.
1) Add 25 microL of antioxidants to assay plate to get proper concentrations in a total reaction volume of 100 micro-L. 2) Add 25 microL of PMA (120 ng/ml) and fMLF (120 ng/ml) to assay plate to get concentration of 30 ng/ml in a total reaction volume of 100 microL. 3) Add 50 microL of cell suspension (2 million cells/ml) to each well. Immediately after addition of cell suspension initiate luminescence measurement; the reaction starts at once when the cells are added to the assay plate. Measurement points are taken at 1-minute intervals for 25 minutes. Data is presented as AUC (Area Under Curve) by a summary of all collected measurements for each well.
FIG. 5: Intracellular ROS analyzed by Luminol (intracellular ROS) induced luminescence in human Neutrophils. ROS induced with PMA (30 ng/ml) with 200, 100 or 0 microM NAC. Concentrations of compounds 120, 60, 30 and 0 microM final concentrations.
FIG. 6: Intracellular ROS analyzed by Luminol (intracellular ROS) induced luminescence in human Neutrophils. ROS induced with fMLF (30 ng/ml) with 200, 100 or 0 microM NAC. Concentrations of compounds 120, 60, 30 and 0 microM final concentrations.
FIG. 7: Intracellular ROS analyzed by Luminol (intracellular ROS) induced luminescence in human PBMCs. ROS induced with PMA (30 ng/ml) with 200, 100 or 0 microM NAC. Concentrations of compounds 120, 60, 30 and 0 microM final concentrations.
FIG. 8: Intracellular ROS analyzed by Luminol (intracellular ROS) induced luminescence in human PBMCs. […]

[2] = system: MG-63, HEK-293, SHSY-5y, MRC-5 and CaCo-2-cells; assay: Alamar Blue cell viability/proliferation assay; type: cell-based, human
Description: Alamar Blue is a non-toxic metabolic indicator for viable cells. Following uptake, the dye becomes reduced and causes a change in the colour of the cell. The colour change correlates reasonably well with the number of living cells in the sample.
Cells w/o antioxidant were used as controls.
Alamar Blue is a non-toxic metabolic indicator for viable cells. Upon uptake into the cell the dye becomes reduced and changes colour. The colour change correlates approximately with the number of living cells in the sample.

[3] = system: human neutrophils; assay: Luminol enhanced chemiluminescence, total ROS production in neutrophils; type: cell-based
Description: We investigated the capacity of the material to quench ROS produced by freshly isolated human neutrophils or THP-1 cells (human acute monocytic leukemia cell line) stimulated with PMA (Phorbol Myristate Acetate). The antioxidant capacity of selenide 1 was again compared to those of Trolox, a water soluble derivative of vitamin E, which is commonly used in biological and biochemical applications to reduce oxidative stress or damage.
Neutrophils were isolated from heparinized blood of apparently healthy blood donors (Academic Hospital, Uppsala, Sweden) following a routine dextran sedimentation method essentially as described by Halansson and Venge (Scandinavian Journal of Immunology 1980, 11, 271-282). To each of three test tubes containing 5 ml heparinized blood, dextran (T500, Pharmacia, Uppsala, Sweden) was added (final concentration 1%) and the sedimentation was allowed to proceed for 30 min at room temperature. […] Finally, the pellet was resuspended in Gey's buffer and the average content of neutrophils (approximately 90%) was calculated using Türks staining and hemocytometer method. […]
The generation of oxygen free radicals over time from neutrophils was monitored for 40 minutes in 24 well white optiplates (Greiner) using a Wallac Victor […] in the luminescence mode. […]

[4] = system: human umbilical vein endothelial cells (HUVEC); assay: XTT in vitro toxicology test in human umbilical vein endothelial cells; type: cell-based; conditions: human
Procedure: As a negative control, cells incubated with medium containing 0.5% DMSO (corresponding to the highest DMSO concentration above) was used. As a positive control, cells were incubated in the presence of 20% EtOH.
After the incubation with the compounds, the wells were washed with PBS to remove substances which could interfere with the assay. 40 μl of fresh medium 200 without phenol red was added together with 10 μl XTT substance (according to the manufacturer's instructions). The plates were incubated for 8 hrs and the colour development was monitored by measuring the absorbance at 450 nm.
After incubation, the number of viable cells was assessed by observing the amount of metabolized XTT (2,3-bis[2-methoxy-4-nitro-5-sulphophenyl]-2H-tetrazolium-5-carboxyanilide inner salt).

CC1Cc2cc(O)ccc2[Se]1 (stereo not drawn) [Compound 1]
antioxidative effect on intracellular ROS [1]: strong antioxidative effect | cell growth (Alamar Blue) [2]: normal cell growth patterns | concentration until which no sign of cell death or decreased proliferation ([2]; human): 235 micro-M | effect on ROS production in neutrophils ([3]; 20, 40, 60 micro-M, FIG. 22): clear, dose dependent, quenching/inhibiting effect | quenching of ROS from neutrophils compared with Trolox ([3]; 20 micro-M each): considerably more effective than Trolox | relative toxicity among the compounds [4]: far less toxic than compounds 2 and 3 | toxic concentration ([4]; 24 h): 500 µM | toxic concentration ([4]; 48 h): 500 µM | toxic concentration ([4]; 72 h): 200 µM
